Earlier results in patent US20250333447A1, “CHIMERIC SMALL MOLECULES FOR LABELING PROTEINS WITH IMMUNOGENIC MOIETIES AND METHODS OF USE THEREOF” (The Brigham and Women's Hospital, Inc., priority 2022, published 2025).

Columns and labels:
HSP90 = details: cell free assay
PSMA = PSMA (Homo sapiens, UniProt Q04609)
Sequence of PSMA (Q04609 whole entry, species assumed): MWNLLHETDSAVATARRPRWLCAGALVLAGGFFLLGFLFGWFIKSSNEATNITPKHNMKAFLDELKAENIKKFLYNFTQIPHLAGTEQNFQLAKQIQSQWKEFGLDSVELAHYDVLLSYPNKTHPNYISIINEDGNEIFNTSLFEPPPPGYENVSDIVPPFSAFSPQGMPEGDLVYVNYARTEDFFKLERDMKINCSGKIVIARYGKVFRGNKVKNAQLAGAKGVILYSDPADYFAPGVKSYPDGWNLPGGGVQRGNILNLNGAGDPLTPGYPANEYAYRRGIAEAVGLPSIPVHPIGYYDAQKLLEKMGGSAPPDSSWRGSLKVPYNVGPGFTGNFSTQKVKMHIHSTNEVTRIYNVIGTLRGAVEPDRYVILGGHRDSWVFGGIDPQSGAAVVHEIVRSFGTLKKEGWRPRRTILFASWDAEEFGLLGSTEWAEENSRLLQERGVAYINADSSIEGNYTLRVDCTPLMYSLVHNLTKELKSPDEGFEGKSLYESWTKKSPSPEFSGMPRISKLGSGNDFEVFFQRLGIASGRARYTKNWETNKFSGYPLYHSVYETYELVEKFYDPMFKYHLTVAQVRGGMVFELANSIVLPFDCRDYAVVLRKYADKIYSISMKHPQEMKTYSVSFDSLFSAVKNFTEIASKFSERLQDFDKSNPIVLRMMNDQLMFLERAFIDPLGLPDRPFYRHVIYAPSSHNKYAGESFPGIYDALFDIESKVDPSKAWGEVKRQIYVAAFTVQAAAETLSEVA

Compound | IC50 (HSP90) | Ki (PSMA)
CO[C@H]1/C=C\C=C(/C)C(=O)NC2=CC(=O)C(NCCN(C)C)=C(C[C@@H](C)C[C@H](OC)[C@H](O)[C@@H](C)/C=C(\C)[C@@H]1OC(N)=O)C2=O [Alvespimycin] | 62 nM | 
O=C(O)CC[C@H](NC(=O)N[C@@H](CCC(=O)O)C(=O)O)C(=O)O [DUPA] |  | 8 nM
